# According to paper PMC13220710 (Bioorganic & medicinal chemistry letters, 2025):
# Where two headings read alike, the source gives them in different places.
# How the values were obtained:
# PC3 cells = details: cited from earlier work
# [1] = test system: PC3 prostate cancer cell line; experiment: Anti-proliferative activity versus PC3 cells in MTS assay; type: cell-based
"IC50 ([1]; read-out: IC50, viability in prostate cancer cell line PC3, MTS assay, triplicate)","IC50 ([1]; Homo sapiens, PC-3, read-out: IC50, viability in prostate cancer cell line PC3)",SMILES,effect on PC3 cells (PC3 cells)
52.1 ± 6.5 µM,–,CC1CCN(CC[C@H]2CCCN2S(=O)(=O)c2cccc(O)c2)CC1 [SB-269970],inhibited proliferation and induced apoptosis in PC3 cells
–,2.8 ± 0.8 µM,COc1cccc2c1C(=O)c1c(O)c3c(c(O)c1C2=O)C[C@@](O)(C(=O)CO)C[C@@H]3O[C@H]1C[C@H](N)[C@H](O)[C@H](C)O1 [Doxorubicin],–
